{"source": "patent US20220096450A1", "about": "“Compounds and Methods for Treating or Preventing Heart Failure” (DREXEL UNIVERSITY, priority 2019, published 2022)", "key": {"[1]": {"system": "TAC mouse model of heart failure", "type": "in vivo", "settings": "10 mg/kg i.p. daily", "method": "Male C57BL/6J mice 10-14 weeks of age were purchased from The Jackson Laboratory (Bar Harbor, Me.).\nMice were anesthetized with isofluran or ketamine/xylazine. The mice were orally intubated and placed on a Harvard volume-cycled rodent ventilator to maintain respiration during surgery. The TAC procedure was performed by tying the aortic arch between the brachiocephalic trunk (innominate artery) and the left carotid artery against a 27-gauge needle spacer with a 7-0 silk suture, followed by immediate removal of the needle. For sham surgeries, thoracotomy was performed and the aorta was surgically exposed without any further intervention. Following surgical closure of the chest, the animals were allowed to recover from anesthesia, followed by post-operative care. The animals were euthanized 12 weeks post-surgery; hearts were harvested, weighed and tibia lengths were measured.\nSterile stock solutions of vehicle only [NMP:PG:kleptose in water (10:40:50)] were similarly prepared each week and stored in aliquots at 4° C. until use. […] (to minimize precipitation), and then cooled to room temperature.\nTransthoracic echocardiography was used to noninvasively quantify cardiac structural and functional changes during the progression to heart failure in the TAC mouse model. Measurements were conducted with animals under 1-3% isoflurane anesthesia using a Vevo® 2100 Imaging System with a high-frequency (18-38 MHz) probe (VisualSonics MS400) (Kohut et al., 2016, J. Cardiovasc. Ultrasound 24: 229-238). Echocardiography using color Doppler ultrasound was performed at 1 week after surgery to confirm the aortic constriction. The aortic constriction was further confirmed by conducting color Doppler and pulsed wave Dopier measurements at 12 weeks after surgery. Baseline echocardiography evaluations were performed 1-2 days prior to surgery. For these studies, parasternal long and short axis images were obtained in two-dimensional B-mode and M-mode. Additional images were obtained at regular intervals (2, 4, 6, 8, 10, 12 weeks) after surgery. To evaluate cardiac structure and function, the echocardiographic data were used to determine left ventricle (LV) end-diastolic diameter, LV end-systolic diameter, LV end-diasolic volume, LV ejection fraction, LV fractional shortening, and LV mass.\nMouse hearts were collected at 12 weeks post surgery, fixed in 10% buffered formalin, and then embedded in paraffin blocks, which were used to prepare serial 4 μm thick heart sections. To detect interstitial fibrosis, heart sections were stained with Masson's trichrome which colors collagen blue and cytoplasm red. Digital images of the slides were captured at 160× magnification using a Leica DFC290 digital camera in conjunction with a Leica MZ16F microscope. […] For each heart, 2 sections taken from the mid-ventricle were analyzed. […] Images were acquired using a FV3000 Olympus Confocal Microscope and analyzed in a blinded manner by two observers. Five field views per mid-ventricle heart section were analyzed by measuring the cross-sectional area of 100 cells per field view using ImageJ. A total of 500 cells per heart section were measured.\nAll data are expressed as means±SEM. Statistical significance was evaluated for comparison between 3 or more means using one-way ANOVA with Tukey-Kramer post hoc test. For the echcocardiography data, obtained prior to and at two-week intervals after surgery, statistical significance was evaluated using two-way repeated ANOVA with Bonferroni post hoc test."}, "[2]": {"molecular_target": "T1, mitochondrial CoQ-dependent respiratory complex II (Mus musculus, UniProt Q8K2B3+Q9CQA3+Q9CXV1+Q9CZB0)", "T1 construct": "mouse muscle homogenate preparations that contain disrupted mitochondrial membranes; from tissue; host or cells: mouse muscle homogenate", "T1 sequence (Q8K2B3 43-664)": "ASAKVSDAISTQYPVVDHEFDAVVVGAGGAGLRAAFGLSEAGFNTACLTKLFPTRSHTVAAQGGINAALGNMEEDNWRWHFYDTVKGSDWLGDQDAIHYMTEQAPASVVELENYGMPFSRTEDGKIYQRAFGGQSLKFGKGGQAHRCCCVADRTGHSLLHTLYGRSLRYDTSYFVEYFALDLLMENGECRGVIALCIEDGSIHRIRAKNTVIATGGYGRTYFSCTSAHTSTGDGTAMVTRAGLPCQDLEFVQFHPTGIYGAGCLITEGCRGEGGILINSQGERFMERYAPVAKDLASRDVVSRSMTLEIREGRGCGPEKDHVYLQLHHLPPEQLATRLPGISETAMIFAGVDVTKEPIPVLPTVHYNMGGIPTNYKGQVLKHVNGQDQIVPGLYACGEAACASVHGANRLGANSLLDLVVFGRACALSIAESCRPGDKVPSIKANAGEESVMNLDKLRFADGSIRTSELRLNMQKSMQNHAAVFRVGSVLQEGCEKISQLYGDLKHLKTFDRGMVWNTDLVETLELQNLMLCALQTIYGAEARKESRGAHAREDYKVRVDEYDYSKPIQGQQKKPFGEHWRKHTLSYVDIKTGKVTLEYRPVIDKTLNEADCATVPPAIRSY", "T1 sequence (Q9CQA3 31-282)": "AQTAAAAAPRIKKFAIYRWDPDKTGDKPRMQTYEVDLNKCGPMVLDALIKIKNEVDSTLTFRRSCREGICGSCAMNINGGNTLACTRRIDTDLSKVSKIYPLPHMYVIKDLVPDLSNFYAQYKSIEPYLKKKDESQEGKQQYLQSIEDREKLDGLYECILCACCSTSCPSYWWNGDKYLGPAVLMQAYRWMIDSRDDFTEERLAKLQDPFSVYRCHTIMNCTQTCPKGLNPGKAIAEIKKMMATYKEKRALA", "T1 sequence (Q9CZB0 30-169)": "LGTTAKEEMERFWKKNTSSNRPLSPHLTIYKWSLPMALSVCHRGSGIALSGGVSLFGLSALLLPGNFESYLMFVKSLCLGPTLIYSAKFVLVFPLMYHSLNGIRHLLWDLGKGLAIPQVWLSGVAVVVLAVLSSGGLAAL", "T1 sequence (Q9CXV1 57-159)": "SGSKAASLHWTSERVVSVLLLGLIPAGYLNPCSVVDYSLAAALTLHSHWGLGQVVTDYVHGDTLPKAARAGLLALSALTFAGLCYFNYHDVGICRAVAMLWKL", "assay": "Biochemical selectivity assay, respiratory complex II", "settings": "highest concentration tested 11 μM", "method": "Inhibitor selectivity was assessed using mouse muscle homogenate preparations that contain disrupted mitochondrial membranes, a feature that makes substrates accessible to each of the membrane-bound respiratory complexes. Spectrophotometric assays for each complex are conducted in the presence or absence of a target-specific inhibitor (FIG. 9) to correct for nonspecific substrate oxidation, as previously described (Spinazzi et al., 2012, Nature Protocols 7: 1235-1246). Thus, the activity of complex I is determined by monitoring the oxidation of NADH in the absence or presence of rotenone. Complex III activity is measured based on the rate of cytochrome C reduction observed in the presence or absence of antimycin A. The reaction catalyzed by complex II produces decylubiquinol (decylCoQH2), which rapidly reduces DCIP. The activity of […] is determined by monitoring DCIP reduction in the presence and absence of 2-thenoyltrifluoroacetone (TTFA)."}, "[3]": {"system": "rat neonatal ventricular cardiomyocytes (NVCMs)", "assay": "Angiotensin II-induced hypertrophy assay in NVCMs", "type": "cell-based", "settings": "200 nM Ang II 24 h; 10 μM FC9402", "from_the_text": "Rat neonatal ventricular cardiomyocytes (NVCMs) were isolated from the hearts of 1-2 day old Sprague-Dawley rats (Charles River) in 50-90% yield (70-95% viability) by following the protocol described by Golden et al. (Golden et al., 2012, in Cardiovascular Development. Methods in Molecular Biology (Methods and Protocols), vol 843 (Peng, X., Antonyak, M., Eds.) pp 205-214, Springer, Totowa, N.J.).\nNVCMs are maintained in Dulbecco's modified Eagle's medium (DMEM:F12) containing 20% fetal bovine serum (FBS), 5% horse serum, 1× GlutaMAX, and 2 μg/mL insulin. For hypertrophy studies, cells were plated onto 4-well glass chamber slides, precoated with poly-D-lysine and laminin. The maintenance medium was aspirated after incubation for 72 h. The cells were serum-starved overnight in DMEM:F12 containing 1% FBS, 1× GlutaMAX, and 2 ug/mL insulin and then incubated for 24 h in fresh serum-starved medium containing angiotensin II, as indicated. […]"}, "[4]": {"settings": "echocardiography, TAC mice, 12 weeks"}}}
{"smiles": "COc1nc(-c2ncccc2C)cc(-c2ccc(N)cc2)c1C#N", "note": "[FC9402, 4-(4-aminophenyl)-2-methoxy-6-(3-methylpyridin-2-yl)pyridine-3-carbonitrile]", "values": [{"measurement": "survival after 12 weeks", "setting": "[1]; TAC mice", "value": 100, "unit": "%"}, {"measurement": "cardiac enlargement (gross morphology, heart weight to tibia length)", "setting": "[1]; TAC mice, 12 weeks", "value": "prevented the TAC-induced cardiac enlargement"}, {"measurement": "left ventricle function (ejection fraction, fractional shortening)", "setting": "[1]; [4]", "value": "preserved left ventricle function"}, {"measurement": "left ventricle size (diameter, volume, mass)", "setting": "[1]; [4]", "value": "maintained left ventricle size"}, {"measurement": "mice that developed heart failure", "setting": "[1]; lung weight/tibia length above 95% confidence interval of sham", "value": 20, "unit": "%"}, {"measurement": "inhibition of respiratory complex II", "setting": "[2]", "value": "did not inhibit"}, {"measurement": "angiotensin II-induced hypertrophy (cell surface area)", "setting": "[3]", "value": "prevents angiotensin II-induced hypertrophy"}]}
